We go through four molecules from patent publication US8754076B2, “Cyclic inhibitors of 11beta-hydroxysteroid dehydrogenase 1” (Vitae Pharmaceuticals, Inc./Boehringer-Ingelheim, priority 2008, dated 2014).

Test [1] deals with human CYP2C9 (Homo sapiens, UniProt P11712). The test is described as follows: Biological Test Example 9: CYP2C9 inhibition (Invitrogen kit, fluorogenic substrate OOMR). It is filed as in vitro ADME.
The target in test [2] is T1, human 11β-HSD1 (Homo sapiens, UniProt P28845).
T1 construct: expressed in transfected cells; host or cells: CHO cells (microsomal preparation)
T1 sequence (P28845 whole entry): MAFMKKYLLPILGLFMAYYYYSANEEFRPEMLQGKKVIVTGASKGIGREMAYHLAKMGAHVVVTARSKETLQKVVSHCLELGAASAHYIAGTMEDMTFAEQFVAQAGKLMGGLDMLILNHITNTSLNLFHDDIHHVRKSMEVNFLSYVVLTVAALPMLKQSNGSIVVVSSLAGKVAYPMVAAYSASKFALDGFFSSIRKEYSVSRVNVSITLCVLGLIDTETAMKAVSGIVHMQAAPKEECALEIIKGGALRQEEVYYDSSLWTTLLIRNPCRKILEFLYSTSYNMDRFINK
It is filed as biochemical.

human CYP2C9, sequence (P11712 whole entry): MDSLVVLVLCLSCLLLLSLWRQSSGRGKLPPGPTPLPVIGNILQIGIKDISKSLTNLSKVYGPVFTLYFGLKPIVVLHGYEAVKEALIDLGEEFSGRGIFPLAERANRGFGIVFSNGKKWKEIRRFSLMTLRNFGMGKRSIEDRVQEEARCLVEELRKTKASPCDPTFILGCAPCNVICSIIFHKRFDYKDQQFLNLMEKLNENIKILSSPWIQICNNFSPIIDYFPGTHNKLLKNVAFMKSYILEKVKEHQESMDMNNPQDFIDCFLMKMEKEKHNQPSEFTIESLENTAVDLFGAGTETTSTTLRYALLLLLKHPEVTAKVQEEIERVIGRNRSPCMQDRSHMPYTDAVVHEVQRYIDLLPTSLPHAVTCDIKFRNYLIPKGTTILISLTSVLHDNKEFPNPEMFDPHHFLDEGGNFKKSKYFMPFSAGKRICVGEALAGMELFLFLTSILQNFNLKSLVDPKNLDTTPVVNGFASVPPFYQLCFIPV

For the molecule `C[C@@H](c1ccc(-c2ccn(C)c(=O)c2)cc1)N1CC[C@](CC(C)(C)O)(c2ccccc2)OC1=O` [Example 48, (S)-6-(2-hydroxy-2-methylpropyl)-3-((S)-1-(4-(1-methyl-2-oxo-1,2-dihydropyridin-4-yl)phenyl)ethyl)-6-phenyl-1,3-oxazinan-2-one], the IC50 in test [1] was greater than 30 µM.

In the case of `CCn1cc(-c2ccc([C@H](C)N3CC[C@](CC(C)(C)O)(c4ccccc4)OC3=O)cc2)ccc1=O` [Example 53, (S)-3-((S)-1-(4-(1-ethyl-6-oxo-1,6-dihydropyridin-3-yl)phenyl)ethyl)-6-(2-hydroxy-2-methylpropyl)-6-phenyl-1,3-oxazinan-2-one], the IC50 in test [1] was greater than 30 µM.

Take `C[C@@H](c1ccc(-c2cccn(C)c2=O)cc1)N1CC[C@](CCCO)(c2ccc(F)cc2)OC1=O` [Example 42, (R)-6-(4-fluorophenyl)-6-(3-hydroxypropyl)-3-((S)-1-(4-(1-methyl-2-oxo-1,2-dihydropyridin-3-yl)phenyl)ethyl)-1,3-oxazinan-2-one]: in test [2], the Shift was found to be 7.97.

In test [1], `C[C@@H](c1ccc(-c2ccn(C3CC3)c(=O)c2)cc1)N1CCC(CC2CC2)(CC(C)(C)O)OC1=O` (single isomer, unassigned) [93 Isomer 1] yielded an IC50 of 28.5 µM.
